Laboratory results published in BindingDB's records for doi:10.1021/jm00129a003 (Abbott Laboratories, 1989).

How the values were obtained:
[1] = target: T1, Gonadotropin-releasing hormone receptor (Rattus norvegicus, UniProt P30969); test: Dissociation constant was determined in vitro using rat pituitary membranes, at concentration 1.0*10e-5 M
T1 sequence (P30969 whole entry): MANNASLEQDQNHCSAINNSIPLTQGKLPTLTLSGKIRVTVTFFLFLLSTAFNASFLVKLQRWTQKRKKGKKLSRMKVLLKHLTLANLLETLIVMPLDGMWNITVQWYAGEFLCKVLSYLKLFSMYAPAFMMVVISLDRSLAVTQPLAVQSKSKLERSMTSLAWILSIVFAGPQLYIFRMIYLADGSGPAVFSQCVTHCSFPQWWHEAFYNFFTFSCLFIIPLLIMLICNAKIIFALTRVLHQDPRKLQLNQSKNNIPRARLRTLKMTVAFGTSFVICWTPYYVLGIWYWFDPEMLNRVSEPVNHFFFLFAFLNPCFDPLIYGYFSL

[2] = target: T1, Gonadotropin-releasing hormone receptor; test: Dissociation constant was determined in vitro using rat pituitary membranes and [125I]-leuprolide as radioligand, at concentration 3.16*10e-6 M

With `CC(=O)N1CCN(c2ccc(OC[C@@H]3CO[C@@](Cn4ccnc4)(c4ccc(Cl)cc4Cl)O3)cc2)CC1` [Nizoral] the Kd [1] was 375 nM and the Kd [2] was 221 nM.
